pKi: −log10 of the molar value.
Columns and labels:
[1] = target: Beta-1 adrenergic receptor (Rattus norvegicus, UniProt P18090)
[2] = target: 5-hydroxytryptamine receptor 1B (Rattus norvegicus, UniProt P28564)
[3] = target: Beta-2 adrenergic receptor (Rattus norvegicus, UniProt P10608)
Beta-2 adrenergic receptor, sequence (P10608 whole entry): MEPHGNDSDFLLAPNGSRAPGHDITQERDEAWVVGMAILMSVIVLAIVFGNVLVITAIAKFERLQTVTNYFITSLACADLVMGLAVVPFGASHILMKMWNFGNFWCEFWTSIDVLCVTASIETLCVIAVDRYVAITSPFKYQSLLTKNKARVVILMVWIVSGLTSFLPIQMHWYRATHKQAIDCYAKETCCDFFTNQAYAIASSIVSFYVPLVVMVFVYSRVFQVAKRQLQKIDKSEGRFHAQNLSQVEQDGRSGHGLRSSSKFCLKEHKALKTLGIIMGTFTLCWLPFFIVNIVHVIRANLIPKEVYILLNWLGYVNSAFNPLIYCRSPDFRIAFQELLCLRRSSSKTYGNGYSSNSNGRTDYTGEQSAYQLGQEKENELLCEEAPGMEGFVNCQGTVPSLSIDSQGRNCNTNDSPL

Beta-1 adrenergic receptor, sequence (P18090 whole entry): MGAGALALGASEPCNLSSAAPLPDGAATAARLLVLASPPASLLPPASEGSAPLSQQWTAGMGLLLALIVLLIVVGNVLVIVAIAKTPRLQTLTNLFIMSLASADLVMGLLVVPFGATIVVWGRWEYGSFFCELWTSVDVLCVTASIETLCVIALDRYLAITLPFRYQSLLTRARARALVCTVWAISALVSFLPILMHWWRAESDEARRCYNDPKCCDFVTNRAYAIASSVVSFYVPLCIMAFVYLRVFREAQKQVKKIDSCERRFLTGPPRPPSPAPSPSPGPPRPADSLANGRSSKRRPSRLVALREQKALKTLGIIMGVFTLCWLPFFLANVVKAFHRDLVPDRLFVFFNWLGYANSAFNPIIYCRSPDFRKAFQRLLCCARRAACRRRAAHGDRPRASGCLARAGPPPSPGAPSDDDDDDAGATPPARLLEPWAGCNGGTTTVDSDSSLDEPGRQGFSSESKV
5-hydroxytryptamine receptor 1B, sequence (P28564 whole entry): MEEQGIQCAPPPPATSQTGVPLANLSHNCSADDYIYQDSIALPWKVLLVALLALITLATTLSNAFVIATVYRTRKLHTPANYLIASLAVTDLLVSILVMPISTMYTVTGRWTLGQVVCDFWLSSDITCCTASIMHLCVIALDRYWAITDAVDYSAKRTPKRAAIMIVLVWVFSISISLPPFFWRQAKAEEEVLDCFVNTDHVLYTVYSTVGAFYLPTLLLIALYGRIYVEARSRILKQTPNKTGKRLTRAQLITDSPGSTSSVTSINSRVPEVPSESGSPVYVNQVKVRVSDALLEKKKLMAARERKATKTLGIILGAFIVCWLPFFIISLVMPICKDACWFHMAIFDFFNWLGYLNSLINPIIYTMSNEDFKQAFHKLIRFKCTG

Row | Structure (SMILES) | pKi [1] | pKi [2] | pKi [3]
1 | CC(C)CNCC(O)COc1cccc2ccccc12 (stereo not drawn) | 8.55 | 7.25 | 8.61
2 | CC(CCc1ccccc1)NCC(O)c1ccc(O)c(C(N)=O)c1 (stereo not drawn) [2-hydroxy-5-{1-hydroxy-2-[(4-phenylbutan-2-yl)amino]ethyl}benzamide] | 7.92 | 5.70 | –
3 | COc1ccc(OC)c([C@@H](O)[C@H](C)NC(C)(C)C)c1 [CAS_1937-89-9] | 5.43 | < 5.00 | 6.33
4 | CC(C)NCC(O)COc1cccc2[nH]ccc12 (stereo not drawn) [LB-46] | 9.18 | – | –
5 | C=CCc1ccccc1OC[C@@H](O)CNC(C)C [ALPRENOLOL,(-)] | – | 7.15 | –
6 | C=CCOc1ccccc1OCC(O)CNC(C)C (stereo not drawn) | 8.11 | 6.76 | 8.01
7 | COCCc1ccc(OCC(O)CNC(C)C)cc1 (stereo not drawn) [Betalok] | – | < 5.00 | –

Other lines, results leading:

Row | pKi [1] | pKi [2] | pKi [3] | Structure (SMILES)
8 | 6.71 | 5.41 | – | Cc1ccc(OC[C@@H](O)[C@H](C)NC(C)C)c2c1CCC2 [ICI 118,551]
9 | – | < 5.00 | – | COCCc1ccc(OC[C@@H](O)CNC(C)C)cc1 [l-Metoprolol]
10 | 8.36 | 5.89 | 7.88 | COc1ccccc1OCCNCC(O)c1ccc(C)c(S(N)(=O)=O)c1 (stereo not drawn) [CAS_93633-92-2]
11 | – | < 5.00 | – | CC(C)NCC(O)c1ccc(NS(C)(=O)=O)cc1 (racemic) [Sotalol,(-)]
12 | 6.61 | < 5.00 | – | CC(=O)Nc1ccc(OCC(O)CNC(C)C)cc1 (stereo not drawn) [Practolol,(-)]
13 | – | < 5.00 | – | COCCc1ccc(OC[C@H](O)CNC(C)C)cc1 [d-Metoprolol]
14 | – | < 5.00 | – | CC(C)NC[C@H](O)COc1ccc(CCOCC2CC2)cc1 [[(2S)-3-{4-[2-(cyclopropylmethoxy)ethyl]phenoxy}-2-hydroxypropyl](propan-2-yl)amine]
15 | 9.74 | 7.97 | 9.26 | CC(C)(C)NCC(O)CSc1nc(-c2ccc(C(N)=O)s2)cs1 (stereo not drawn) [CAS_52560-77-7]

— BindingDB's records for doi:10.1254/jjp.52.195 (Niigata College of Pharmacy, 1990)
